Assay results: patent US20240384350A1, “METHODS OF TREATING CANCER WITH KINASE INHIBITORS” (BOARD OF REGENTS, THE UNIVERSITY OF TEXAS SYSTEM, priority 2021, published 2024)

Key:
Experiment in all cases: Ba/F3 drug screening, Cell Titer Glo, IC50 Mut/WT
Assay type in all cases: cell-based
EGFR L858R T790M V843I = target: T1, EGFR L858R T790M V843I (Homo sapiens, UniProt P00533, L858R/T790M/V843I); conditions: T790M-like-3S, 72 hours
T1 construct: expressed in transfected cells; host or cells: Ba/F3

EGFR S768I/V769L = target: T2, EGFR S768I/V769L (Homo sapiens, UniProt P00533, S768I/V769L); conditions: Ba/F3 cells, EGFR S768I/V769L (PACC), Mut/WT
T2 construct: host or cells: Ba/F3

EGFR Ex19del T790M = target: T3, EGFR Ex19del T790M (Homo sapiens, UniProt P00533, DEL746-750/T790M); conditions: T790M-like-3S, 72 hours
T3 construct: expressed in transfected cells; host or cells: Ba/F3

EGFR G719A L861Q = target: T4, EGFR G719A L861Q (Homo sapiens, UniProt P00533, G719A/L861Q); conditions: Ba/F3 cells, EGFR G719A L861Q (PACC), Mut/WT
T4 construct: expressed in transfected cells; host or cells: Ba/F3
Description: (§1) Data represent the ratio of the IC50 value for a given TKI for cells with a PACC EGFR mutation to the IC50 value for cells with wildtype EGFR.
(§2) Ba/F3 cell generation, drug screening, and IC50 approximations. Ba/F3 cells were obtained as a gift from Dr. Gordon Mills (MD Anderson Cancer Center), and maintained in RPMI (Sigma) containing 10% FBS, 1% penicillin/streptomycin, and 10 ng/ml recombinant mIL-3 (R&D Biosystems). To establish stable Ba/F3 cell lines, Ba/F3 cells were transduced with retroviruses containing mutant EGFR plasmids for 12-24 hours.
(§3) After 48-72 hours of transduction, 2 μg/ml puromycin (Invitrogen) was added to Ba/F3 cell lines in complete RPMI. To select for EGFR positive cell lines, cells were stained with PE-EGFR (Biolegend) and sorted by FACS. After sorting, EGFR positive cells were maintained in RPMI containing 10% FBS, 1% penicillin/streptomycin, and 1 ng/ml EGF to support cell viability. Drug screening was performed as previously described^41,42. Shortly, cells were plated in 384-well plates (Greiner Bio-One) at 2000-3000 cells per well in technical triplicate. Seven different concentrations of TKIs or DMSO vehicle were added to reach a final volume of 40 μL per well. After 72 hours, 11 μL of Cell Titer Glo (Promega) was added to each well. Plates were incubated for a minimum of 10 minutes, and bioluminescence was determined using a FLUOstar OPTIMA plate reader (BMG LABTECH). Raw bioluminescence values were normalized to DMSO control treated cells, and values were plotted in GraphPad Prism. […] Drug screens were performed in technical triplicate on each plate and either duplicate or triplicate biological replicates.

EGFR S720P = target: T5, EGFR S720P (Homo sapiens, UniProt P00533, S720P); conditions: Classical-Like, 72 hours
T5 construct: expressed in transfected cells; host or cells: Ba/F3 cells, retroviral pBabe-Puro vector (vector made by GeneScript from EGFR WT)

EGFR R776H = target: T6, EGFR R776H (Homo sapiens, UniProt P00533, R776H); conditions: Ba/F3 cells, EGFR R776H (PACC), Mut/WT
T6 construct: host or cells: Ba/F3

EGFR E709A G719S = target: T7, EGFR E709A G719S (Homo sapiens, UniProt P00533, E709A/G719S); conditions: Ba/F3 cells, EGFR E709A G719S (PACC), Mut/WT
T7 construct: expressed in transfected cells; host or cells: Ba/F3
Description: as §1, §2, §3

[1] = target: T8, EGFR L747_K754del insATSPE (Homo sapiens, UniProt P00533, DEL747-749/K754E); conditions: T790M-like-3S, 72 hours
T8 construct: expressed in transfected cells; host or cells: Ba/F3 cells, retroviral pBabe-Puro vector
Description: (§4) Data represent the ratio of the IC50 value for a given TKI for cells with a T790M-like-3S EGFR mutation to the IC50 value for cells with wildtype EGFR.
as §2, §3

EGFR L858R/L718V = target: T9, EGFR L858R/L718V (Homo sapiens, UniProt P00533, L718V/L858R); conditions: Ba/F3 cells, EGFR L858R/L718V (PACC), Mut/WT
T9 construct: host or cells: Ba/F3
Description: as §1, §2, §3

EGFR H773insNPH = target: T10, EGFR H773insNPH (Homo sapiens, UniProt P00533, INS773NPH); conditions: Ex20, 72 hours
T10 construct: expressed in transfected cells; host or cells: Ba/F3 cells, retroviral pBabe-Puro vector

EGFR E709K = target: T11, EGFR E709K (Homo sapiens, UniProt P00533, E709K); conditions: Ba/F3 cells, EGFR E709K (PACC), Mut/WT
T11 construct: expressed in transfected cells; host or cells: Ba/F3
Description: as §1, §2, §3

EGFR L718Q T790M = target: T12, EGFR L718Q T790M (Homo sapiens, UniProt P00533, L718Q/T790M); conditions: T790M-like-3R, 72 hours
T12 construct: expressed in transfected cells; host or cells: Ba/F3

EGFR L858R/T790M/L718Q = target: T13, EGFR L858R/T790M/L718Q (Homo sapiens, UniProt P00533, L718Q/L858R/T790M); conditions: T790M-like-3R, 72 hours
T13 construct: expressed in transfected cells; host or cells: Ba/F3

EGFR S768dupSVD = target: T14, EGFR S768dupSVD (Homo sapiens, UniProt P00533, DUP768-770); conditions: Ex20, 72 hours
T14 construct: expressed in transfected cells; host or cells: Ba/F3 cells, retroviral pBabe-Puro vector

EGFR L858R/C797S = target: T15, EGFR L858R/C797S (Homo sapiens, UniProt P00533, C797S/L858R); conditions: Ba/F3 cells, EGFR L858R/C797S (PACC), Mut/WT
T15 construct: expressed in transfected cells; host or cells: Ba/F3

EGFR Ex19del = target: T16, EGFR Ex19del (Homo sapiens, UniProt P00533, DEL746-750); conditions: Classical-Like, 72 hours
T16 construct: expressed in transfected cells; host or cells: Ba/F3 cells, retroviral pBabe-Puro vector
Description: Data represent the ratio of the IC50 value for a given TKI for cells with a classical-like EGFR mutation to the IC50 value for cells with wildtype EGFR.
as §2
After 48-72 hours of transduction, 2 μg/ml puromycin (Invitrogen) was added to Ba/F3 cell lines in complete RPMI. To select for EGFR positive cell lines, cells were stained with PE-EGFR (Biolegend) and sorted by FACS. After sorting, EGFR positive cells were maintained in RPMI containing 10% FBS, 1% penicillin/streptomycin, and 1 ng/ml EGF to support cell viability. […] Shortly, cells were plated in 384-well plates (Greiner Bio-One) at 2000-3000 cells per well in technical triplicate. Seven different concentrations of TKIs or DMSO vehicle were added to reach a final volume of 40 μL per well. After 72 hours, 11 μL of Cell Titer Glo (Promega) was added to each well. Plates were incubated for a minimum of 10 minutes, and bioluminescence was determined using a FLUOstar OPTIMA plate reader (BMG LABTECH). Raw bioluminescence values were normalized to DMSO control treated cells, and values were plotted in GraphPad Prism. […] Drug screens were performed in technical triplicate on each plate and either duplicate or triplicate biological replicates.

EGFR Ex19del/T790M/L792H = target: T17, EGFR Ex19del/T790M/L792H (Homo sapiens, UniProt P00533, DEL746-750/L792H/T790M); conditions: T790M-like-3R, 72 hours
T17 construct: expressed in transfected cells; host or cells: Ba/F3

EGFR G719A/R776C = target: T18, EGFR G719A/R776C (Homo sapiens, UniProt P00533, G719A/R776C); conditions: Ba/F3 cells, EGFR G719A/R776C (PACC), Mut/WT
T18 construct: expressed in transfected cells; host or cells: Ba/F3
Description: as §1, §2, §3

EGFR Ex19del/L792H = target: T19, EGFR Ex19del/L792H (Homo sapiens, UniProt P00533, DEL746-750/L792H); conditions: Ba/F3 cells, EGFR Ex19del/L792H (PACC), Mut/WT
T19 construct: expressed in transfected cells; host or cells: Ba/F3
Description: as §1, §2, §3

EGFR T790M = target: T20, EGFR T790M (Homo sapiens, UniProt P00533, T790M); conditions: T790M-like-3S, 72 hours
T20 construct: expressed in transfected cells; host or cells: Ba/F3
Description: as §4, §2, §3

EGFR T725M = target: T21, EGFR T725M (Homo sapiens, UniProt P00533, T725M); conditions: Classical-Like, 72 hours
T21 construct: expressed in transfected cells; host or cells: Ba/F3 cells, retroviral pBabe-Puro vector (vector made by GeneScript from EGFR WT)

EGFR G719S T790M = target: T22, EGFR G719S T790M (Homo sapiens, UniProt P00533, G719S/T790M); conditions: T790M-like-3S, 72 hours
T22 construct: expressed in transfected cells; host or cells: Ba/F3
Description: as §4, §2, §3

EGFR L833V = target: T23, EGFR L833V (Homo sapiens, UniProt P00533, L833V); conditions: Classical-Like, 72 hours
T23 construct: expressed in transfected cells; host or cells: Ba/F3 cells, retroviral pBabe-Puro vector

EGFR N771dupN G724S = target: T24, EGFR N771dupN G724S (Homo sapiens, UniProt P00533, DUP771-771/G724S); conditions: Ex20, 72 hours
T24 construct: expressed in transfected cells; host or cells: Ba/F3 cells, retroviral pBabe-Puro vector (vector made by GeneScript from EGFR G724S, c.2313_2314insAAC)
Description: Data represent the ratio of the IC50 value for a given TKI for cells with an ex20ins EGFR mutation to the IC50 value for cells with wildtype EGFR.
as §2
After 48-72 hours of transduction, 2 μg/ml puromycin (Invitrogen) was added to Ba/F3 cell lines in complete RPMI. To select for EGFR positive cell lines, cells were stained with PE-EGFR (Biolegend) and sorted by FACS. After sorting, EGFR positive cells were maintained in RPMI containing 10% FBS, 1% penicillin/streptomycin, and 1 ng/ml EGF to support cell viability. Drug screening was performed as previously described^41,42. Shortly, cells were plated in 384-well plates (Greiner Bio-One) at 2000-3000 cells per well in technical triplicate. Seven different concentrations of TKIs or DMSO vehicle were added to reach a final volume of 40 μL per well. After 72 hours, 11 μL of Cell Titer Glo (Promega) was added to each well. Plates were incubated for a minimum of 10 minutes, and bioluminescence was determined using a FLUOstar OPTIMA plate reader (BMG LABTECH). Raw bioluminescence values were normalized to DMSO control treated cells, and values were plotted in GraphPad Prism. […] Drug screens were performed in technical triplicate on each plate and either duplicate or triplicate biological replicates. […] Statistical differences between groups were determined by ANOVA as described in the figure legends.

EGFR S784F = target: T25, EGFR S784F (Homo sapiens, UniProt P00533, S784F); conditions: Classical-Like, 72 hours
T25 construct: expressed in transfected cells; host or cells: Ba/F3 cells, retroviral pBabe-Puro vector (vector made by GeneScript from EGFR WT)

EGFR E709A = target: T26, EGFR E709A (Homo sapiens, UniProt P00533, E709A); conditions: Ba/F3 cells, EGFR E709A (PACC), Mut/WT
T26 construct: expressed in transfected cells; host or cells: Ba/F3

EGFR G719S = target: T27, EGFR G719S (Homo sapiens, UniProt P00533, G719S); conditions: Ba/F3 cells, EGFR G719S (PACC), Mut/WT
T27 construct: expressed in transfected cells; host or cells: Ba/F3

SMILES	ratio of IC50 for cells with mutant EGFR to IC50 for cells with wildtype EGFR (Mut/WT) (EGFR L858R T790M V843I)	ratio of the IC50 value for cells with a PACC EGFR mutation to the IC50 value for cells with wildtype EGFR (EGFR S768I/V769L)	ratio of the IC50 value for cells with a PACC EGFR mutation to the IC50 value for cells with wildtype EGFR (EGFR G719A L861Q)	ratio of IC50 for cells with mutant EGFR to IC50 for cells with wildtype EGFR (Mut/WT) (EGFR S720P)	ratio of the IC50 value for cells with a PACC EGFR mutation to the IC50 value for cells with wildtype EGFR (EGFR R776H)	ratio of the IC50 value for cells with a PACC EGFR mutation to the IC50 value for cells with wildtype EGFR (EGFR E709A G719S)	ratio of IC50 for cells with mutant EGFR to IC50 for cells with wildtype EGFR (Mut/WT) [1]	ratio of the IC50 value for cells with a PACC EGFR mutation to the IC50 value for cells with wildtype EGFR (EGFR L858R/L718V)	ratio of IC50 for cells with mutant EGFR to IC50 for cells with wildtype EGFR (Mut/WT) (EGFR H773insNPH)	ratio of the IC50 value for cells with a PACC EGFR mutation to the IC50 value for cells with wildtype EGFR (EGFR E709K)	ratio of IC50 for cells with mutant EGFR to IC50 for cells with wildtype EGFR (Mut/WT) (EGFR L718Q T790M)	ratio of IC50 for cells with mutant EGFR to IC50 for cells with wildtype EGFR (Mut/WT) (EGFR L858R/T790M/L718Q)	ratio of IC50 for cells with mutant EGFR to IC50 for cells with wildtype EGFR (Mut/WT) (EGFR S768dupSVD)	ratio of the IC50 value for cells with a PACC EGFR mutation to the IC50 value for cells with wildtype EGFR (EGFR L858R/C797S)	ratio of IC50 for cells with mutant EGFR to IC50 for cells with wildtype EGFR (Mut/WT) (EGFR Ex19del/T790M/L792H)	ratio of the IC50 value for cells with a PACC EGFR mutation to the IC50 value for cells with wildtype EGFR (EGFR G719A/R776C)	ratio of the IC50 value for cells with a PACC EGFR mutation to the IC50 value for cells with wildtype EGFR (EGFR Ex19del/L792H)	ratio of IC50 for cells with mutant EGFR to IC50 for cells with wildtype EGFR (Mut/WT) (EGFR T790M)	ratio of IC50 for cells with mutant EGFR to IC50 for cells with wildtype EGFR (Mut/WT) (EGFR T725M)	ratio of IC50 for cells with mutant EGFR to IC50 for cells with wildtype EGFR (Mut/WT) (EGFR G719S T790M)	also measured
C=CC(=O)N[C@H]1C=C(C)c2c(-c3cnc4ccccc4c3)c3c(N)ncnc3n2C1 [TAS 6417]	0.07336	0.004702	0.02387	0.01035	0.09	0.03472	0.0004661	0.01509	0.1843	0.2516	0.02624	3.055	0.05773	3.055	0.0002637	3.055	0.008269	0.6671	0.02572	0.032	ratio of IC50 for cells with mutant EGFR to IC50 for cells with wildtype EGFR (Mut/WT) (EGFR Ex19del T790M): 0.001513; ratio of IC50 for cells with mutant EGFR to IC50 for cells with wildtype EGFR (Mut/WT) (EGFR Ex19del): 0.00149; ratio of IC50 for cells with mutant EGFR to IC50 for cells with wildtype EGFR (Mut/WT) (EGFR L833V): 0.03111; ratio of IC50 for cells with mutant EGFR to IC50 for cells with wildtype EGFR (Mut/WT) (EGFR N771dupN G724S): 0.05113; ratio of IC50 for cells with mutant EGFR to IC50 for cells with wildtype EGFR (Mut/WT) (EGFR S784F): 0.01015; ratio of the IC50 value for cells with a PACC EGFR mutation to the IC50 value for cells with wildtype EGFR (EGFR E709A): 0.3054; ratio of the IC50 value for cells with a PACC EGFR mutation to the IC50 value for cells with wildtype EGFR (EGFR G719S): 0.01675
C=CC(=O)Nc1cc(Nc2nccc(-n3cc(CN(C)C)c(-c4ccccc4)n3)n2)c(OC)cc1N1CCOCC1 [Lazertinib]	0.06612	0.666	1.406	0.01568	0.6077	0.06878	2.781	2.619	5.102	0.2612	3.513	11.87	4.027	28.05	1.105	0.5224	0.001792	0.2517	0.004466	0.003464	ratio of IC50 for cells with mutant EGFR to IC50 for cells with wildtype EGFR (Mut/WT) (EGFR L833V): 0.006132; ratio of IC50 for cells with mutant EGFR to IC50 for cells with wildtype EGFR (Mut/WT) (EGFR S784F): 0.245; ratio of the IC50 value for cells with a PACC EGFR mutation to the IC50 value for cells with wildtype EGFR (EGFR E709A): 0.2759; ratio of the IC50 value for cells with a PACC EGFR mutation to the IC50 value for cells with wildtype EGFR (EGFR G719S): 0.1555
